# Earlier results in patent publication US12595109B2, “Device to release water and antimicrobial vapor into an enclosed or partially enclosed space” (Arkema Inc., priority 2020, dated 2026).
# Read-outs that look alike come from different tables or passages of the source.
# Key:
# [1] = system: Bacillus subtilis (Spores)
# [2] = system: Geobacillus stearothermophilus; conditions: biological indicator, 2 mg/L gaseous H2O2
# [3] = system: Clostridium sporogenes (Spores)
# [4] = Liquid solution of H2O2, c(H2O2) = 370 mg l^−1, T = 24-25° C.
# [5] = VPHP, c(H2O2) = 1-2 mg l^−1, T = 24-25° C.
compound,measurement,setting,value
OO [hydrogen peroxide],maximum exposure,"ACGIH, 5 times the TLV-TWA",no more than 5 ppm
same,TLV,"ACGIH, 8 hour TWA",1 ppm
same,STEL,United Kingdom and some other countries,2 ppm
same,Short Term Exposures (STELs),Washington and Hawaii,3 ppm
same,D-value,[1]; [4],2.0 to 7.3 min
same,D-value,[1]; [5],0.5 to 1 min
same,D-value,[2],0.8 min
same,D-value,Bacillus (Spores); [4],1.5 min
same,D-value,Bacillus (Spores); [5],1 to 2 min
same,D-value,[3]; [4],0.8 min
same,D-value,[3]; [5],0.5 to 1 min
